Assay results: US20050147698A1, “Co-beadlet of dha and rosemary and methods of use” (Alcon, Inc., priority 2003, published 2005)

Test system: retinas
Assay: protection of retinas from acute light-induced toxicity
Format: in vivo
Conditions: no data or method given

For Vitamin E, the “protection of retinas from acute light-induced toxicity” value was “effective in protecting retinas from acute light-induced toxicity”.
